Measurements published in patent publication US4061741A, “Physiological substances for intensifying the pharmacological effect of drugs” (Firma Servomed Arzei GmbH & Co. Pharma KG, priority 1974, dated 1977).
“Also recorded” adds a separate entry of the source. Counter-ions that a name gives are not always drawn.

Assays:
CFI mice = test: analgesic efficacy, writhing test, 60 minutes after oral application (Examples 5 to 8, Tables V to VIII); assay type: in vivo, mouse (CFI); settings: for ED50: Mus musculus, 1 h, 60 mins.
Method: The analgesic efficacy of sodium salicylate, sodium salicylate + choline orotate in the molar ratio of 1:1 and sodium salicylate + choline orotate in the molar ratio of 1:2 was compared in the writhing test on mice and the ED50 determined after 1 hour.
As in Example 5, the ED50 of metamizol and metamizol + choline orotate in the molar ratio of 1:2 was determined after one hour by the writhing test.
The analgesic effects of codeine phosphate and codeine phosphate + choline orotate (molar ratio 1:1) are compared in the writhing test on mice.

NMRI mice = test: analgesic efficacy, writhing syndrome, oral (Example 1, Table I); assay type: in vivo, mouse (NMRI, female)
Method: Dextropropoxyphene-HCl, dextropropolyphenorotate and dextropropoxyphene orotate + orotic acid (in the molar ratio 1:1) were tested on mice to determine their analgesic efficacy after oral administration following the "writhing" syndrome. The ED50 was determined after 15 minutes, 30 minutes, 60 minutes and 180 minutes.
ED50 in […] of mouse (calculated with respect to the
dextropropoxyphene-HCl);
oral application, writhing syndrome, 800 NMRI mice, […]

guinea pigs [1] = test: antitussive efficacy, Turner cough test, citric acid aerosol, oral (Example 2, Table II); assay type: in vivo, guinea pig; settings: for % cough inhibition: 30 minutes after oral application; for ED50: calculated according to the Gaussian Integral from the values of Table II, 30 minutes; for ED50 / antitussive efficacy (in words): oral; for antitussive efficacy (in words): in the dosages tested, guinea pigs
Method: The antitussive efficacy of laevopropoxyphene-HCl and laevopropoxyphene orotate was compared on guinea pigs, using the Turner cough test.
% cough inhibition 30 minutes after oral application.
70 guinea pigs, 250 g; 7.5% citric acid aerosol for 10
minutes in the respired air.
According to the Gaussian Integral, from the values shown in the Table, the ED50 can be calculated for: L-propoxyphene-HCl as being greater than 200 mg/kg of animal, 1-propoxyphene orotate 79 ± 8 mg/kg of animal.

guinea pigs [2] = test: antitussive action, Turner cough test, citric acid aerosol, intravenous (Example 3, Table III); assay type: in vivo, guinea pig
Method: As with Example 2, the two substances laevopropoxyphene-HCl and laevopropoxyphene orotate were tested and compared with respect to their antitussive action. This time, however, intravenous applications were adopted.
% cough inhibition; the figures in brackets represent mg
propoxyphene-HCl in the 1-propoxyphene orotate.
320 guinea pigs (350 g); intravenous application. 7.5%

guinea pigs [3] = test: antitussive efficacy, Turner cough test, citric acid aerosol, oral (Example 4, Table IV); assay type: in vivo; settings: guinea pig, calculated with respect to 1-propoxyphene-HCl
Method: The antitussive efficacy of laevopropoxyphene-HCl, laevopropoxyphene orotate, laevopropoxyphene orotate + choline orotate (in the molar ratio 1:1) and of laevopropoxyphene-HCl + choline orotate (in the molar ratio of 1:2) was tested and compared after oral application on guinea pigs using the Turner cough test.
ED50 in mg/kg of guinea pig. Values calculated with respect
280 guinea pigs (350 g); oral application.
7.5% citric acid aerosol.

blood proteins = test: drug not bonded to serum protein, ultrafiltration of human serum with and without orotic acid; assay type: in vitro ADME; settings: in the presence of orotic acid
Method: 1 ml of this serum is then ultrafiltered at the same temperature, accompanied by agitation. (Filter permeability up to a molecular weight of approx. 10,000). The radioactivity contained in this ml is measured. The measured value, found […], indicates the percentage of drug which is not bonded to protein. The same test is repeated but in the presence of non-radioactively marked orotic acid in a molar ratio to the marked drug of for example 1:1 or 1:2. The percentage of free drug is calculated similarly as described above. If the second measured value is higher than the first, then this is a measure of improved availability of the drug. This increased availability is confirmed in experiments with animals.

COc1ccc2c3c1O[C@H]1[C@@H](O)C=C[C@H]4[C@@H](C2)N(C)CC[C@@]341 [Codeine phosphate]
ED50 (CFI mice; oral, writhing syndrome, CFI mice, female, 20 to 22 g, Table VII): 82 mg/kg

CCC(=O)O[C@](Cc1ccccc1)(c1ccccc1)[C@H](C)CN(C)C [Dextropropoxyphene orotate]
analgesic efficacy (in words) (NMRI mice): substantially more intensely effective as an analgesic than dextropropoxyphene-HCl by itself

CCC(=O)O[C@@](Cc1ccccc1)(c1ccccc1)[C@@H](C)CN(C)C [Laevopropoxyphene orotate]
% cough inhibition (guinea pigs [1]; 25 mg/kg): 6%
% cough inhibition (guinea pigs [1]; 50 mg/kg): 31%
% cough inhibition (guinea pigs [1]; 75 mg/kg): 47%
% cough inhibition (guinea pigs [1]; 100 mg/kg): 56%
ED50 (guinea pigs [1]; listed as 1-propoxyphene orotate): 79 ± 8 mg/kg of animal
antitussive efficacy (in words) (guinea pigs [1]): outstanding antitussive efficacy
% cough inhibition (guinea pigs [2]; 1 (0.758) mg/kg, 5 min., bracket = mg propoxyphene-HCl): 17.5%
% cough inhibition (guinea pigs [2]; 1 (0.758) mg/kg, 10 min.): 24%
% cough inhibition (guinea pigs [2]; 1 (0.758) mg/kg, 15 min.): 30%
% cough inhibition (guinea pigs [2]; 1 (0.758) mg/kg, 20 min.): 23%
% cough inhibition (guinea pigs [2]; 3 (2.27) mg/kg, 5 min.): 31.0%
% cough inhibition (guinea pigs [2]; 3 (2.27) mg/kg, 10 min.): 30%
% cough inhibition (guinea pigs [2]; 3 (2.27) mg/kg, 15 min.): 36%
% cough inhibition (guinea pigs [2]; 3 (2.27) mg/kg, 20 min.): 47%
% cough inhibition (guinea pigs [2]; 5 (3.79) mg/kg, 5 min.): 40.5%
% cough inhibition (guinea pigs [2]; 5 (3.79) mg/kg, 10 min.): 48%
% cough inhibition (guinea pigs [2]; 5 (3.79) mg/kg, 15 min.): 53%
% cough inhibition (guinea pigs [2]; 5 (3.79) mg/kg, 20 min.): 59%
% cough inhibition (guinea pigs [2]; 7.5 (5.69) mg/kg, 5 min.): 52.0%
% cough inhibition (guinea pigs [2]; 7.5 (5.69) mg/kg, 10 min.): 59%
% cough inhibition (guinea pigs [2]; 7.5 (5.69) mg/kg, 15 min.): 63%
% cough inhibition (guinea pigs [2]; 7.5 (5.69) mg/kg, 20 min.): 62%
antitussive efficacy (in words) (guinea pigs [2]; guinea pigs): superior efficacy
ED50 (guinea pigs [3]; 1 hr., listed as Laevopropoxyphene crotate, 60 min): 103 mg/kg
ED50 (guinea pigs [3]; 3 hr., listed as Laevopropoxyphene crotate, 180 min): 68 mg/kg

CCC(=O)O[C@@](Cc1ccccc1)(c1ccccc1)[C@@H](C)CN(C)C [Laevopropoxyphene-HCl]
% cough inhibition (guinea pigs [1]; 25 mg/kg): 0%
% cough inhibition (guinea pigs [1]; 50 mg/kg): 8%
% cough inhibition (guinea pigs [1]; 75 mg/kg): 0%
% cough inhibition (guinea pigs [1]; 100 mg/kg): 11%
% cough inhibition (guinea pigs [1]; 150 mg/kg): 0%
% cough inhibition (guinea pigs [1]; 200 mg/kg): 9%
ED50 (guinea pigs [1]; listed as L-propoxyphene-HCl): greater than 200 mg/kg of animal
antitussive efficacy (in words) (guinea pigs [1]): no antitussive efficacy
% cough inhibition (guinea pigs [2]; 2 mg/kg, 5 min.): 11%
% cough inhibition (guinea pigs [2]; 2 mg/kg, 10 min.): 0%
% cough inhibition (guinea pigs [2]; 2 mg/kg, 15 min.): 0%
% cough inhibition (guinea pigs [2]; 5 mg/kg, 5 min.): 24%
% cough inhibition (guinea pigs [2]; 5 mg/kg, 10 min.): 0%
% cough inhibition (guinea pigs [2]; 5 mg/kg, 15 min.): 0%
toxicity remark in the cough inhibition table (guinea pigs [2]; 7.5 mg/kg): subtoxic
ED50 (guinea pigs [3]; 1 hr., listed as Laevorpopoxyphene-HCl, 60 min): 250 mg/kg
ED50 (guinea pigs [3]; 3 hr., listed as Laevorpopoxyphene-HCl, 180 min): 195 mg/kg

Cc1c(N(C)CS(=O)(=O)O)c(=O)n(-c2ccccc2)n1C [Metamizol]
ED50 (CFI mice; oral, writhing test, CFI mice (18 to 20 g), Table VI): 380 mg/kg
analgesic efficacy on addition of an orotic acid salt (in words) (CFI mice; metamizol, writhing test, mice, oral): reinforcement of the analgesic efficacy

CCCCC1C(=O)N(c2ccccc2)N(c2ccccc2)C1=O [Phenyl butazone]
ED50 (CFI mice; oral, writhing syndrome, CFI mice, female, 20 to 22 g, Table VIII): 130 ± 45 mg/kg
analgesia in animal experiments (in words) (CFI mice; in the presence of orotic acid): no reinforced analgesia; also recorded: no reinforced pharmacological action
amount of drug in the ultrafiltrate (in words) (blood proteins): not found in increased quantity in the ultrafiltrate; also recorded: no more drug is found

O=C([O-])c1ccccc1O.[Na+] [Sodium salicylate]
ED50 (CFI mice; oral, writhing test, CFI mice (18 - 20 g), Table V): 580 mg/kg
